Test results taken from patent publication US20250171420A1 (Monte Rosa Therapeutics, Inc., priority 2022, published 2025).

target: T1, CK1α (Homo sapiens, UniProt P48729); test: CK1α NanoBit Assay (HiBiT-tagged CSNK1A1, HEK293 clonal lines); type: cell-based; details: HEK293 HiBiT-CSNK1A1/LgBiT cells, 24 h incubation
T1 construct: HEK293 clonal lines with CRISPR KI HiBiT tag on CSNK1A1
Method: HEK293 clonal lines with CRISPR KI HiBiT tag on CSNK1A1 and stably expressing LgBiT protein were obtained from Promega (Madison, WI). […] Cells were incubated at 37° C., 5% CO2 for 24 hours and then signal was read on a Pherastar FSX using “LUM plus” optic module.
Data analysis was performed in Scinamic (Scinamic, Cambridge, MA). Luminescence response (R) was calculated by the formula: response=100*(S−N)/(P−N) where S is the signal of the well, N and P the mean negative and positive control values respectively of the same plate.
DC50 data are reported in Table 2 for compounds in Table 1. In Table 2 below, According to the code, A represents a DC50 value of ≤0.1 μM, B represents a DC50 value>0.1 μM and ≤1 μM, C represents an DC50 value>1 μM.

T1 sequence (P48729 whole entry): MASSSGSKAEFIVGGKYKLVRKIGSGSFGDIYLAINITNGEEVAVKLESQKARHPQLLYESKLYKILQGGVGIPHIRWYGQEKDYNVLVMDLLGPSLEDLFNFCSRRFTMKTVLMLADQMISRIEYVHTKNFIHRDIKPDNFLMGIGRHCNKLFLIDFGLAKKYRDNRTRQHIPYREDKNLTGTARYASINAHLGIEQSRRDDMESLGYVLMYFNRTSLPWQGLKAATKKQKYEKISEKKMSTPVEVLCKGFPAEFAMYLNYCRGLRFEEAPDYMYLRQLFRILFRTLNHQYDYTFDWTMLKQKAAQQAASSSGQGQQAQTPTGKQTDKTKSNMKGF
T1 sequence (Q96SW2 whole entry, further chain): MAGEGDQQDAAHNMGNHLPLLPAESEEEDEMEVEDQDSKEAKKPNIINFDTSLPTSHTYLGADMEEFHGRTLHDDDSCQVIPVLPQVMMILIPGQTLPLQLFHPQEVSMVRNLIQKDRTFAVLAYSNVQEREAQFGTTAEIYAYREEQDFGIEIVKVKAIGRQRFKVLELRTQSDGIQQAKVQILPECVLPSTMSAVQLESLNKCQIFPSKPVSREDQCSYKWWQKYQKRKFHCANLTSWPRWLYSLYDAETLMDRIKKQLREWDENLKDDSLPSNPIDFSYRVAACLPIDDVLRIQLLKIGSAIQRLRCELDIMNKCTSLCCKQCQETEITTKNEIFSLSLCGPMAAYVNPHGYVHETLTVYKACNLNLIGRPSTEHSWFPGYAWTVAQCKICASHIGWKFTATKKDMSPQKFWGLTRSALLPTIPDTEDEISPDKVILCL
T1 sequence (Q16531 2-1140 partner limits assumed): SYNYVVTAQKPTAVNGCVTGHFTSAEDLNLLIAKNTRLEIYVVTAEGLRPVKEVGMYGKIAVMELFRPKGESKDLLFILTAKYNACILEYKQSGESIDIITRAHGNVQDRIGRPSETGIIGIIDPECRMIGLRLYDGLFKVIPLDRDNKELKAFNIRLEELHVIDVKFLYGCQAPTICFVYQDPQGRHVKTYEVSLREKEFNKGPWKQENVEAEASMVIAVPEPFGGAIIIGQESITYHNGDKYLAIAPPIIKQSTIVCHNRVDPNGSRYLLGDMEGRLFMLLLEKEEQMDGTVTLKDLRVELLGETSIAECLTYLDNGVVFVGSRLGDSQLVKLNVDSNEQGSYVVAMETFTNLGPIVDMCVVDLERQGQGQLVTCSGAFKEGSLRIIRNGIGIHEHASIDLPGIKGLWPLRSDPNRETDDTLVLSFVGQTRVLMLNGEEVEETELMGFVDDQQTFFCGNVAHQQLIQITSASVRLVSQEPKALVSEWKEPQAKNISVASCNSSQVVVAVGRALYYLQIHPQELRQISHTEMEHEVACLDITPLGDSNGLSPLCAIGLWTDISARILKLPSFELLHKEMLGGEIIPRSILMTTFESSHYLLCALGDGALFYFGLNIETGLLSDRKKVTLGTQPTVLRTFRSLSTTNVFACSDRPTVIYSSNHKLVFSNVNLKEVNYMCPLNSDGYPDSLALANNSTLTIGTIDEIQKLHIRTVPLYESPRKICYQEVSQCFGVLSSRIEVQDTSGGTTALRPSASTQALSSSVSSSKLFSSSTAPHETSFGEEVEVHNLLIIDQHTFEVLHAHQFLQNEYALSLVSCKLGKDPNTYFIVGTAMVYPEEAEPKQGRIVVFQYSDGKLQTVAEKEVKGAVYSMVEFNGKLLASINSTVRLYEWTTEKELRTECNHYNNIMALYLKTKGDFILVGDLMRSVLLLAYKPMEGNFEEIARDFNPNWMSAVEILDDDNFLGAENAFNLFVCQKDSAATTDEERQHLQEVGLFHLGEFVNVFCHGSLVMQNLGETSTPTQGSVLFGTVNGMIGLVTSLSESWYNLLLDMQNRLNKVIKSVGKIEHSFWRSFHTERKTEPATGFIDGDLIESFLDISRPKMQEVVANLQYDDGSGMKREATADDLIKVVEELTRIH

`O=C1CC[C@@H](N2Cc3cc(NC(=O)N4c5ccccc5C[C@@H]4C(F)(F)F)ccc3C2=O)C(=O)N1` (single isomer, unassigned) [Compound 360] and `O=C1CC[C@H](N2Cc3cc(NC(=O)N4c5ccccc5C[C@H]4C(F)(F)F)ccc3C2=O)C(=O)N1` (single isomer, unassigned) [Compound 361] cannot be ordered by DC50: < 0.1 µM for the first, < 0.1 µM for the second.

Compared with `O=C1CCC(N2Cc3cc(NC(=O)N4CCc5ccccc5C4)ccc3C2=O)C(=O)N1` (centres unmarked) [Compound 104, N-(2-(2,6-dioxopiperidin-3-yl)-1-oxoisoindolin-5-yl)-3,4-dihydroisoquinoline-2(1H)-carboxamide], `O=C1CCC(N2Cc3cc(NC(=O)N4CCc5ccncc5C4)ccc3C2=O)C(=O)N1` (centres unmarked) [Compound 151] is higher in DC50: < 0.1 µM for the first, > 1 µM for the second.

First: O=C1CCC(N2Cc3cc(NC(=O)N4CCCc5ccccc54)ccc3C2=O)C(=O)N1 (centres unmarked) [Compound 107, N-(2-(2,6-dioxopiperidin-3-yl)-1-oxoisoindolin-5-yl)-3,4-dihydroquinoline-1(2H)-carboxamide]
Second: O=C1CCC(N2Cc3cc(NC(=O)N4CCCc5ccc(F)cc54)ccc3C2=O)C(=O)N1 (centres unmarked) [Compound 116]
The DC50 of the first is higher: 0.1 to 1 µM for the first, < 0.1 µM for the second.

First: O=C1CCC(N2Cc3cc(NC(=O)N4CCc5ncccc54)ccc3C2=O)C(=O)N1 (centres unmarked) [Compound 108, N-(2-(2,6-dioxopiperidin-3-yl)-1-oxoisoindolin-5-yl)-2,3-dihydro-1H-pyrrolo[3,2-b]pyridine-1-carboxamide]
Second: O=C1CCC(N2Cc3cc(NC(=O)N4CCCc5ncccc54)ccc3C2=O)C(=O)N1 (centres unmarked) [Compound 145]
The DC50 of the first is lower: 0.1 to 1 µM for the first, > 1 µM for the second.

First: O=C1CCC(N2Cc3cc(NC(=O)N4CCc5cnccc54)ccc3C2=O)C(=O)N1 (centres unmarked) [Compound 110, N-(2-(2,6-dioxopiperidin-3-yl)-1-oxoisoindolin-5-yl)-2,3-dihydro-1H-pyrrolo[3,2-c]pyridine-1-carboxamide]
Second: Cc1cc2c(cn1)CCN2C(=O)Nc1ccc2c(c1)CN(C1CCC(=O)NC1=O)C2=O (centres unmarked) [Compound 113]
The DC50 of the first is lower: 0.1 to 1 µM for the first, > 1 µM for the second.

Compared with `O=C1CCC(N2Cc3cc(NC(=O)N4CCCc5ccc(C(F)(F)F)cc54)ccc3C2=O)C(=O)N1` (centres unmarked) [Compound 114], `Cc1ccc2c(c1)N(C(=O)Nc1ccc3c(c1)CN(C1CCC(=O)NC1=O)C3=O)CCC2` (centres unmarked) [Compound 149] is higher in DC50: < 0.1 µM for the first, 0.1 to 1 µM for the second.

First: Cc1cc(C)c2c(n1)CN(C(=O)Nc1ccc3c(c1)CN(C1CCC(=O)NC1=O)C3=O)C2 (centres unmarked) [Compound 118]
Second: O=C1CCC(N2Cc3cc(NC(=O)N4Cc5cccnc5C4)ccc3C2=O)C(=O)N1 (centres unmarked) [Compound 121]
The DC50 of the first is lower: < 0.1 µM for the first, 0.1 to 1 µM for the second.

`CC1CN(C(=O)Nc2ccc3c(c2)CN(C2CCC(=O)NC2=O)C3=O)c2ccccc21` (centres unmarked) [Compound 119] and `CC1Cc2ccccc2N(C(=O)Nc2ccc3c(c2)CN(C2CCC(=O)NC2=O)C3=O)C1` (centres unmarked) [Compound 153] cannot be ordered by DC50: < 0.1 µM for the first, < 0.1 µM for the second.

First: CC1CCc2ccccc2N1C(=O)Nc1ccc2c(c1)CN(C1CCC(=O)NC1=O)C2=O (centres unmarked) [Compound 120]
Second: CC1Cc2ccccc2N1C(=O)Nc1ccc2c(c1)CN(C1CCC(=O)NC1=O)C2=O (centres unmarked) [Compound 138]
The DC50 of the first is higher: 0.1 to 1 µM for the first, < 0.1 µM for the second.

`Cc1cccc2c1CCCN2C(=O)Nc1ccc2c(c1)CN(C1CCC(=O)NC1=O)C2=O` (centres unmarked) [Compound 122] and `O=C1CCC(N2Cc3cc(NC(=O)N4CCCc5c(F)cccc54)ccc3C2=O)C(=O)N1` (centres unmarked) [Compound 131] fall in the same range of DC50: 0.1 to 1 µM for the first, 0.1 to 1 µM for the second.

`O=C1CCC(N2Cc3cc(NC(=O)N4c5ccccc5C[C@@H]4CO)ccc3C2=O)C(=O)N1` (some centres unmarked) [Compound 125] and `C[C@H]1c2ccccc2CN1C(=O)Nc1ccc2c(c1)CN(C1CCC(=O)NC1=O)C2=O` (some centres unmarked) [Compound 167] cannot be ordered by DC50: < 0.1 µM for the first, < 0.1 µM for the second.

First: N#Cc1cccc2c1CCCN2C(=O)Nc1ccc2c(c1)CN(C1CCC(=O)NC1=O)C2=O (centres unmarked) [Compound 126]
Second: O=C1CCC(N2Cc3cc(NC(=O)N4CCCc5c4cccc5C(F)(F)F)ccc3C2=O)C(=O)N1 (centres unmarked) [Compound 160]
The DC50 of the first is higher: > 1 µM for the first, 0.1 to 1 µM for the second.

`O=C1CCC(N2Cc3cc(NC(=O)N4CCC(C(F)(F)F)c5ccccc54)ccc3C2=O)C(=O)N1` (centres unmarked) [Compound 127] and `O=C1CCC(N2Cc3cc(NC(=O)N4CCc5ccccc5C4C(F)(F)F)ccc3C2=O)C(=O)N1` (centres unmarked) [Compound 130] cannot be ordered by DC50: < 0.1 µM for the first, < 0.1 µM for the second.

Compared with `C[C@@H]1C[C@H](C)c2ccccc2N1C(=O)Nc1ccc2c(c1)CN(C1CCC(=O)NC1=O)C2=O` (some centres unmarked) [Compound 128], `CC1Cc2ccccc2C(C)N1C(=O)Nc1ccc2c(c1)CN(C1CCC(=O)NC1=O)C2=O` (centres unmarked) [Compound 166] is lower in DC50: 0.1 to 1 µM for the first, < 0.1 µM for the second.

`O=C1CCC(N2Cc3cc(NC(=O)N4CCCc5ccc(C(F)F)cc54)ccc3C2=O)C(=O)N1` (centres unmarked) [Compound 129] and `O=C1CCC(N2Cc3cc(NC(=O)N4CCCc5cc(F)ccc54)ccc3C2=O)C(=O)N1` (centres unmarked) [Compound 141] cannot be ordered by DC50: < 0.1 µM for the first, < 0.1 µM for the second.

`N#Cc1ccc2c(c1)CN(C(=O)Nc1ccc3c(c1)CN(C1CCC(=O)NC1=O)C3=O)C2` (centres unmarked) [Compound 133] and `O=C1CCC(N2Cc3cc(NC(=O)N4Cc5ccc(C(F)F)cc5C4)ccc3C2=O)C(=O)N1` (centres unmarked) [Compound 168] cannot be ordered by DC50: < 0.1 µM for the first, < 0.1 µM for the second.

First: COc1cccc2c1CN(C(=O)Nc1ccc3c(c1)CN(C1CCC(=O)NC1=O)C3=O)C2 (centres unmarked) [Compound 134]
Second: O=C1CCC(N2Cc3cc(NC(=O)N4Cc5ccncc5C4)ccc3C2=O)C(=O)N1 (centres unmarked) [Compound 144]
The DC50 of the first is lower: < 0.1 µM for the first, 0.1 to 1 µM for the second.

Going from `O=C1CCC(N2Cc3cc(NC(=O)N4Cc5ccccc5C5(CC5)C4)ccc3C2=O)C(=O)N1` (centres unmarked) [Compound 136] to `CC1(C)c2ccccc2CCN1C(=O)Nc1ccc2c(c1)CN(C1CCC(=O)NC1=O)C2=O` (centres unmarked) [Compound 156], the DC50 rises from < 0.1 µM to > 1 µM.

`Cc1cccc2c1N(C(=O)Nc1ccc3c(c1)CN(C1CCC(=O)NC1=O)C3=O)CCC2` (centres unmarked) [Compound 139] and `O=C1CCC(N2Cc3cc(NC(=O)N4CCCc5cccc(F)c54)ccc3C2=O)C(=O)N1` (centres unmarked) [Compound 157] fall in the same range of DC50: 0.1 to 1 µM for the first, 0.1 to 1 µM for the second.

First: Cc1ccc2c(c1)CCCN2C(=O)Nc1ccc2c(c1)CN(C1CCC(=O)NC1=O)C2=O (centres unmarked) [Compound 140]
Second: N#Cc1ccc2c(c1)CCCN2C(=O)Nc1ccc2c(c1)CN(C1CCC(=O)NC1=O)C2=O (centres unmarked) [Compound 150]
The DC50 of the first is lower: < 0.1 µM for the first, 0.1 to 1 µM for the second.

`CC1(C)CCN(C(=O)Nc2ccc3c(c2)CN(C2CCC(=O)NC2=O)C3=O)c2ccccc21` (centres unmarked) [Compound 143] and `CC1(C)Cc2ccccc2N(C(=O)Nc2ccc3c(c2)CN(C2CCC(=O)NC2=O)C3=O)C1` (centres unmarked) [Compound 165] cannot be ordered by DC50: < 0.1 µM for the first, < 0.1 µM for the second.

`O=C1CCC(N2Cc3cc(NC(=O)N4CCCc5cccnc54)ccc3C2=O)C(=O)N1` (centres unmarked) [Compound 146] and `O=C1CCC(N2Cc3cc(NC(=O)N4CCCc5cccc(Cl)c54)ccc3C2=O)C(=O)N1` (centres unmarked) [Compound 158] fall in the same range of DC50: 0.1 to 1 µM for the first, 0.1 to 1 µM for the second.

Compared with `CC(C)(C)C1Cc2ccccc2N(C(=O)Nc2ccc3c(c2)CN(C2CCC(=O)NC2=O)C3=O)C1` (centres unmarked) [Compound 154], `O=C1CCC(N2Cc3cc(NC(=O)N4CC(n5cccn5)Cc5ccccc54)ccc3C2=O)C(=O)N1` (centres unmarked) [Compound 161] is higher in DC50: < 0.1 µM for the first, 0.1 to 1 µM for the second.

`CC(C)c1cccc2c1N(C(=O)Nc1ccc3c(c1)CN(C1CCC(=O)NC1=O)C3=O)CCC2` (centres unmarked) [Compound 155] and `O=C1CCC(N2Cc3cc(NC(=O)N4CCCc5cccc(OC(F)F)c54)ccc3C2=O)C(=O)N1` (centres unmarked) [Compound 159] fall in the same range of DC50: 0.1 to 1 µM for the first, 0.1 to 1 µM for the second.

`C[C@@H]1c2ccccc2CN1C(=O)Nc1ccc2c(c1)CN(C1CCC(=O)NC1=O)C2=O` (some centres unmarked) [Compound 170] and `C[C@H]1c2ccccc2[C@H](C)N1C(=O)Nc1ccc2c(c1)CN(C1CCC(=O)NC1=O)C2=O` (some centres unmarked) [Compound 172] cannot be ordered by DC50: < 0.1 µM for the first, < 0.1 µM for the second.
